Experimental data taken from paper PMC12216609, “Inhibitors of eIF1A-ribosome interaction unveil uORF-dependent regulation of translation initiation and antitumor and antiviral effects” (The EMBO Journal, 2025).
“And” between values parts separate entries of the source, which are not always exact repeats. Equal values may be shown once.

Assays:
[1] = test system: CUG/GUG vs AUG start codon luciferase reporters in HEK293T cells; assay: Near-cognate AUG starting codon fidelity reporter assay (GUG, CUG vs AUG); type: cell-based; details: for CUG vs AUG (%): CUG start codon reporter relative to AUG reporter (AUG = 100); for CUG vs AUG (%) / GUG vs AUG (%): single-experiment calculation; for GUG vs AUG (%): GUG start codon reporter relative to AUG reporter (AUG = 100); for GUG vs AUG data (%) / GUG vs AUG (%) Average: compound at 20uM; for GUG vs AUG data (%): individual repeat; for GUG vs AUG (%) Average: summary average of repeats, DMSO control average […]
Method: We next considered the importance of eIF1A in controlling start codon fidelity in yeast and mammalian cells (Martin-Marcos et al, [2011]; Martin-Marcos et al, [2017]; Sehrawat et al, [2019]; She et al, [2023]) and tested how inhibition of eIF1A by 1Ais affects the initiation from near-cognate AUG. The effect of 1Ais was analyzed using firefly luciferase reporters bearing either AUG (control), CUG, or GUG as the exclusive translation initiation sites. Co-transfected GFP reporter served as an internal control for transfection efficiency.
For the near-cognate AUG Starting codon fidelity reporter assay, HEK293T cells were transfected with 100 ng of the previously described luciferase reporter constructs driven either by AUG, CUG, and GUG (Tang et al, [2017]) together with GFP expressing plasmid (20 ng) as normalizing control. Luciferase and GFP levels were determined as described above.
Appendix Figure S1: (A) HEK293T cells were transfected with Luciferase reporter genes with either CUG or AUG as their exclusive starting codon. 6 hours after transfection, cells were exposed to 1Ais, and the luminescence from all constructs was measured after overnight incubation. Bars represent the ratio between luminescence from the AUG starting codon and CUG after normalization with co-transfected GFP; Error bars represent SEM, * denotes p<0.05 (T-test comparing to DMSO control), n=≥4 independent biological replicates.

eIF1A-RPS10 interaction = biological target: T1, eIF1A-RPS10 interaction (Homo sapiens, UniProt P46783+P47813); assay: Split-Renilla luciferase eIF1A-RPS10 interaction screen, dose-response; type: biochemical; details: Appendix Table S1; read-out: IC50 from the split RL screen
T1 construct: made in house; host or cells: E. coli BL21 (PRSFduet); unpurified lysate supernatant
Method: While knockdown (KD) studies of eIF1A provided valuable insights into its role in mammalian cell translation (Sehrawat et al, [2019]), this approach presents several limitations. First, it fails to elucidate the functional significance of the opposing functions of eIF1A N- and C-terminal tails with respect to scanning and start codon fidelity. Second, the extended duration required for achieving efficient knockdown, 48–72 h, impairs our ability to differentiate between direct and indirect effects. To overcome these constraints, we set out to develop small-molecule inhibitors targeting eIF1A. Guided by structural and biochemical studies showing eIF1A binding to the small ribosomal subunit at the A-site and interacting directly with RPS10 through its N-terminal tail (Haimov et al, [2017]; Passmore et al, [2007]; Sehrawat et al, [2019]), our approach focused on disrupting the interaction between eIF1A and RPS10. […] The interaction between eIF1A and RPS10 brings the two parts together, leading to the reconstitution of the enzymatic activity (Haimov et al, [2017]). In this system, the spatial arrangement of the two RL parts is critical for the enzymatic activity, making it sensitive not only to direct interference with the interacting proteins but also to changes in the conformation of the fused proteins. In the eIF1A-RPS10 split-RL pair, the C-terminus of eIF1A is fused to N-RL (Fig. 1A), in order to maintain the NTT accessible to RPS10 binding. This pair was cloned and expressed in bacteria as recombinant proteins and used to screen a library of ~50,000 small molecules from diverse sources (Ashkenazi et al, [2017]).
eIF1A-ΔC-Renilla and RPS10-ΔN-Renilla were transformed into BL21 E. coli by heat shock transformation. A bacterial starter of 5 ml LB was incubated overnight at 37 °C and transferred into 1 L LB for incubation at 37 °C until OD ~ 0.5–0.7. Next, protein expression was induced with 0.5 mM IPTG, and bacterial cells were incubated overnight at 16 °C. Bacterial cell pellet was collected after centrifugation (3000 RPM, 15 min), resuspended in 20 ml TKE buffer (Tris 10 mM, KCl 100 mM, EDTA 0.1 mM), sonicated (bath sonicator, 24 cycles of 30 s) and centrifuged again (15000 RPM, 30 min). Supernatants were collected, analyzed for RL activity, and then used for high throughput drug screen (HTS) at the Weizmann G-INCPM HTS unit as described (Ashkenazi et al, [2017]). In addition to the standard controls of this protocol, the two parts of the split RL, without eIF1A or RPS10, were tested as controls. Selected compounds were purchased from Sigma-Aldrich and Enamine. Compound powders were resuspended in DMSO for a final concentration of 10 mM and stored at −20 °C.

[2] = test system: IRF7 5'UTR firefly luciferase reporter in HEK293T cells; details: for LONG (summary - All), normalized to DMSO: Long reporter; for LONG (summary - All), normalized to DMSO / SHORT (summary - All), normalized to DMSO / average ( long vs short ratio): 20 µM; for LONG (summary - All), normalized to DMSO / SHORT (summary - All), normalized to DMSO: individual replicates, outliers excluded, DMSO = 1; for SHORT (summary - All), normalized to DMSO: Short reporter; for average ( long vs short ratio): summary - All;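 on all read-outs here: luciferase signal corrected by a co-transfected GFP reporter for transfection efficiency, read after overnight compound exposure, with Long and Short reporters differing in 5'UTR length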
[3] = test system: cap-proximal AUG GFP reporter in HEK293T cells; type: cell-based; details: GFP WB densitometry; 20 µM overnight; dmso 0.965946
Source text: Translation from an AUG preceded by a very short 5'UTR (less than 30 nt) is usually inefficient and frequently bypassed, resulting in initiation from a downstream AUG, a phenomenon known as leaky scanning. […] To examine the impact of 1Ais on short 5'UTR initiation, we used a GFP reporter gene containing an AUG located 16 nt downstream from the 5' end followed by a second in-frame downstream AUG (Fig. 1F; Appendix Fig. S1B). Cells were transfected with this GFP reporter gene followed by exposure to DMSO (vehicle) and 1Ais. Initiations from upstream (US) or downstream (DS) AUGs were determined by western blot (WB) with anti-GFP antibodies and the ratio between the US and DS AUG was determined.
For the analysis of translation from very short 5'UTR and Leaky scanning, HEK293T cells were transfected with a GFP (20 ng/well) reporter gene driven by a cap-proximal and downstream AUGs (Elfakess et al, [2011]) together with a luciferase reporter gene (100 ng/well) as normalizing control and treated with 20 µM of 1Ais as described above. GFP levels were determined by Western blot (WB) (GFP antibody, Abcam #ab290) and quantified by densitometry (ImageJ) and normalized to the measured luciferase activity.
HEK293T cells were transfected with the GFP reporter gene schematically shown on the top. The first
AUG is […] from the 5’ end and the downstream AUG is in the same frame. Six hours after transfection, cells were treated with 1Ais. After overnight exposure to 1Ais, GFP expression was analyzed by WB using anti -GFP antibodies.
US/DS ratio was determined by densitometry and represents the long protein expression (upstream AUG, US) vs the […]
biological replicates. (C-D) Analysis of reporter genes mRNA levels after 1Ais treatment.

[4] = test system: uORF-bearing 5'UTR firefly reporters in HEK293T cells; assay: uORF reinitiation / leaky scanning firefly reporters; details: for averages of FF vs RL / FF vs RL / averages of FF vs RL 2 / FF vs RL 2: 95nt experiment; for averages of FF vs RL 2 / FF vs RL 2: block FF-2 (c113); for 95nt from uORF to main ORF experiment, minus 95nt, average (DMSO = 1): minus 95nt reporter
Source text: (M) The reference and uORF-bearing reporters were transfected to HEK293T cells together with RL, which served to normalize translation efficiency. The reporter activities are represented as firefly vs RL; n ≥3 independent biological replicates, error bars represent SEM. *P < 0.05, **P < 0.01, Student t test. (N) Firefly Reporters (J) were transfected to HEK293T cells together with normalizing RL. […] Results are represented as firefly vs. RL normalized to DMSO in each biological replicate; n = 4, error bars represent SEM. *P < 0.05, **P < 0.01, Student t test.
In the first and second, we inserted an out-of-frame uAUG 46 or 95 nucleotides before the main ORF, respectively, followed by a downstream stop codon generating an uORF of 10 amino acids. In these constructs, the translation from the main ORF could be either by reinitiation or leaky scanning. In the third construct, this out of frame uAUG lacks a stop codon, causing initiation from the main ORF to exclusively occur via leaky scanning (Fig. 4L). These reporters were transfected into HEK293T cells together with RL luciferase reporter for normalizing transfection efficiency. […] We next examined these reporters in the presence of 1Ais.

[5] = compound at 20uM (summary head)
[6] = raw data calculation of one experiment, GFP normalized, AUG set to 100, compound marked (20)

T1 sequence (P47813 whole entry, one chain of several): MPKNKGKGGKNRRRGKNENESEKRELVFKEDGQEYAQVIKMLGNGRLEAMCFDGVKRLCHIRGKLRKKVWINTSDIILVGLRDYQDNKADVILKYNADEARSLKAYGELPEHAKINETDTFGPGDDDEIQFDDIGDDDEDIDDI

## CNc1nc(-c2cc(C)n(C)c2C)cs1 [compound 153]
[1]; [5]
  CUG vs AUG (%): 5.937%
  GUG vs AUG (%): 1.586%

## O=S(=O)(Cc1cc(Cl)c2c(c1)OCCO2)Cc1nc(-c2ccccc2)no1 [1Ai-6476]
[1]
  GUG vs AUG data (%): 1.75% and 1.69% and 1.77% and 1.59%
  GUG vs AUG (%) Average: 1.70%
[1]; [6]
  calculation: CUG (AUG = 100): 6.068
  calculation: GUG (AUG = 100): 1.669
eIF1A-RPS10 interaction
  IC50: 15 µM
[2]
  LONG (summary - All), normalized to DMSO: 0.42 and 1.63 and 1.39 and 0.53
  SHORT (summary - All), normalized to DMSO: 0.36 and 1.11 and 1.08 and 0.95
  average ( long vs short ratio): 1.134
[3]
  US/DS ratio, average: 0.719

## O=C(Nc1nc(-c2c[nH]c3ccccc23)cs1)c1cc(=O)[nH]c2ccccc12 [compound 403]
[1]; compound at 5uM (summary head)
  CUG vs AUG (%): 8.469%
  GUG vs AUG (%): 1.79%

## CNc1nc(-c2cc(C)n(C)c2C)cs1 [1Ai-0153]
[1]
  GUG vs AUG data (%): 1.78% and 1.33% and 1.95% and 1.92%
  GUG vs AUG (%) Average: 1.74%
eIF1A-RPS10 interaction
  IC50: 27 µM
[2]
  LONG (summary - All), normalized to DMSO: 0.73 and 0.87 and 1.53 and 0.96 and 1.14
  SHORT (summary - All), normalized to DMSO: 0.72 and 0.98 and 1.54 and 1.66 and 1.69 and 1.65
  average ( long vs short ratio): 0.762
[2]; compound at 20 µM, left data block (Long), source data of Fig 1C
  Long 5'UTR reporter luciferase activity, normalized to DMSO (=1), single replicates: 0.734 and 0.8747 and 1.529 and 0.9608 and 2.673 and 1.141

## O=C1c2ccccc2NC(c2cc(O)c(O)c(Cl)c2)N1c1ccccc1 (centres unmarked) [1A-8214]
[4]; block FF-1 (c104), reporter minus46, DMSO 0.0248618
  averages of FF vs RL: 0.02612
[4]; block FF-1 (c104), reporter minus 46, DMSO 2.74E-02, 2.23E-02
  FF vs RL: 2.94E-02 and 2.28E-02
[4]; block FF-1 (c104), reporter minus 46 plus 50, DMSO 2.94E-02, 2.09E-02
  FF vs RL: 1.20E-02 and 1.67E-02
[4]; block FF-1 (c104), reporter minus 95, DMSO 0.0251627
  averages of FF vs RL: 0.01437
[4]; block FF-1 (c104), reporter ref, DMSO 0.0298915
  averages of FF vs RL: 0.04961
[4]; block FF-1 (c104), reporter reference, DMSO 2.79E-02, 3.19E-02
  FF vs RL: 6.51E-02 and 3.41E-02
[4]; block FF-1 (c131), reporter minus 46, DMSO 0.17626, 0.185518
  FF vs RL: 0.2074 and 0.2118
[4]; block FF-1 (c131), reporter minus46, DMSO 0.180889
  averages of FF vs RL: 0.2096
[4]; block FF-1 (c131), reporter minus 46 plus 50, DMSO 0.437858, 0.481275
  FF vs RL: 0.464 and 0.5005
[4]; block FF-1 (c131), reporter minus 95, DMSO 0.459566
  averages of FF vs RL: 0.4822
[4]; block FF-1 (c131), reporter ref, DMSO 0.345569
  averages of FF vs RL: 0.2779
[4]; block FF-1 (c131), reporter reference, DMSO 0.39984, 0.291299
  FF vs RL: 0.281 and 0.2748
[4]; reporter minus46, DMSO 0.0506669
  averages of FF vs RL 2: 0.04195
[4]; reporter minus 46, DMSO 3.43E-02, 5.07E-02
  FF vs RL 2: 4.79E-02 and 3.60E-02
[4]; reporter minus 46 plus 50, DMSO 3.05E-02, 1.38E-02
  FF vs RL 2: 1.96E-02 and 1.61E-02
[4]; reporter minus 95, DMSO 0.0221428
  averages of FF vs RL 2: 0.01783
[4]; reporter ref, DMSO 0.0383109
  averages of FF vs RL 2: 0.05624
[4]; reporter reference, DMSO 3.69E-02, 3.97E-02
  FF vs RL 2: 6.80E-02 and 4.45E-02
[4]; minus46 reporter, 95nt from uORF to main ORF experiment, Figure 4N source data, replicate experiments, DMSO = 1
  reporter activity norm to DMSO, minus46: 0.8043 and 1.051 and 0.8279
[4]; minus46 reporter
  95nt from uORF to main ORF experiment, minus46, average (DMSO = 1): 0.8942
[4]; minus 95 (nt) reporter, 95nt from uORF to main ORF experiment, Figure 4N source data, replicate experiments, DMSO = 1
  reporter activity norm to DMSO, minus 95: 1.049 and 0.5709 and 0.8051
[4]
  95nt from uORF to main ORF experiment, minus 95nt, average (DMSO = 1): 0.8085
[4]; ref reporter, 95nt from uORF to main ORF experiment, Figure 4N source data, replicate experiments, DMSO = 1
  reporter activity norm to DMSO, ref: 1.159 and 1.66 and 1.468
[4]; ref reporter
  95nt from uORF to main ORF experiment, ref, average (DMSO = 1): 1.429

## O=C(COc1ccccc1[N+](=O)[O-])NCc1ccc(-c2ccc(Br)cc2)o1 [1A-4700]
[4]; 95nt from uORF to main ORF experiment summary, experiment 240919, reporter minus46, DMSO = 1
  firefly/Renilla normalized to DMSO, minus46 reporter: 0.3368 and 0.3707
[4]; 95nt from uORF to main ORF experiment summary, experiment 240919, reporter minus 95nt, DMSO = 1
  firefly/Renilla normalized to DMSO, minus 95nt reporter: 1.123 and 1.106
[4]; 95nt from uORF to main ORF experiment summary, experiment 240919, reporter ref, DMSO = 1
  firefly/Renilla normalized to DMSO, ref reporter: 0.8256 and 0.6094
[4]; minus46 reporter
  95nt from uORF to main ORF experiment, minus46, average (DMSO = 1): 0.3537
[4]
  95nt from uORF to main ORF experiment, minus 95nt, average (DMSO = 1): 1.115
[4]; ref reporter
  95nt from uORF to main ORF experiment, ref, average (DMSO = 1): 0.7175
